Results as given in publication PMC10709440, “High-throughput ligand profile characterization in novel cell lines expressing seven heterologous insect olfactory receptors for the detection of volatile plant biomarkers” (Scientific Reports, 2023).
Where two headings read alike, the source gives them in different places. Blank lines part the entries; values can stand above or below the molecule they belong to.

Key:
[1] = target: T1, Drosophila OR49b (Drosophila melanogaster, UniProt Q9V6H2); assay: cell-based; design: GCaMP6 calcium fluorescence in stable HEK293 OR+ORCO lines; peak dF normalised to 50 uM VUAA1 (=1); settings: HEK293; relative to 50 uM VUAA1 response; below 0.05 set to 0; read-out: % activation
T1 construct: expressed in transfected cells
T1 sequence (Q9V6H2 1-375): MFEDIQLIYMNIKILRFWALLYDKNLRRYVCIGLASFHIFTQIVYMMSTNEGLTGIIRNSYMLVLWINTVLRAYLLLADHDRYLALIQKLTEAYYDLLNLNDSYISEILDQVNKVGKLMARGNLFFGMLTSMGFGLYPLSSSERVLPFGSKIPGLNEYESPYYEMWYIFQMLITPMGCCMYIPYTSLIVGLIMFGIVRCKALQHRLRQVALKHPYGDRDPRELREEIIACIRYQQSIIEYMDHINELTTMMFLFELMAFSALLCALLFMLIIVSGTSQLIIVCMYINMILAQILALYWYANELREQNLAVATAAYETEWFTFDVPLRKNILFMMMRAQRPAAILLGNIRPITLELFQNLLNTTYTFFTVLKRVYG
T1 sequence (Q9VNB5 1-486 partner): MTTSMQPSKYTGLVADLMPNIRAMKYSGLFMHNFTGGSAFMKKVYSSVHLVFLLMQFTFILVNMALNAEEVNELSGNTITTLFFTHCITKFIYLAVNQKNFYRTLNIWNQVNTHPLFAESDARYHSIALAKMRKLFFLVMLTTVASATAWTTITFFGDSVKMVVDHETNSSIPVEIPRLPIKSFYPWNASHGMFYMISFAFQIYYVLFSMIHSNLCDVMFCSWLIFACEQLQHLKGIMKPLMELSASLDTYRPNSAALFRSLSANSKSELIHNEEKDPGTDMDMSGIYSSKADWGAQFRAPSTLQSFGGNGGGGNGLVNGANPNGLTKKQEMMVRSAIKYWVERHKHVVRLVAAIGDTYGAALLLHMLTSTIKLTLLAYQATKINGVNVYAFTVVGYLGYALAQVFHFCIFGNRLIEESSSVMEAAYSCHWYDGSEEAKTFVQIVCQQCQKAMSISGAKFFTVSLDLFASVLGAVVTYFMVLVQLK
Method: (§1) Twelve thousand to 18,000 cells were plated into each well of a black wall, transparent bottom 384-well microplate (Greiner) 48 h or 72 h before the measurements and were simultaneously treated with 1 μg/mL doxycycline. […] The plate has 24 columns, thus we could record responses in up to eight different cell lines in each plate. On the day of the experiment, the growth medium was replaced with 20 µL assay buffer/well (140 mM NaCl, 5 mM KCl, 2 mM CaCl2, 1 mM MgCl2, 5 mM HEPES-Na, 20 mM glucose, pH 7.3, 340 mOsm). […] Baseline fluorescence (F0) was recorded for 5 s, after which 7 µL VOC buffer (140 mM NaCl, 5 mM KCl, 2 mM CaCl2, 1 mM MgCl2, 5 mM HEPES-Na, 31 mM glucose, 0.1% DMSO, pH 7.3, 340 mOsm) was injected into each well in one row and the fluorescence response was recorded for an additional 30 s, at a rate of one read/sec. VOC solutions (VOC buffer with 4× concentration of the final measured VOC concentration, 9 µL/well was injected) were measured on the same wells in a second round with the same protocol. Each individual concentration of a specific VOC sample was recorded in three wells for the same cell line on the same microplate. The raw data were exported in xls file format, F0 and FMAX values, and the fluorescence intensity changes (∆F) were calculated in Excel (Microsoft) (Supplementary file Data summary.xlsx) using the following equation: ΔF=FMAX-F0/F0 (see also Fig. 1C). On each plate, we recorded the response of each cell line to 50 µM VUAA1. The average of these ∆F values of each cell line were used to calculate the VUAA1-normalized values for the rest of the plate, by dividing VOC response ∆F values by the average VUAA1 response ∆F value of the corresponding OR cell line. Each VOC-OR combination was measured three times as tec The recorded FMAX, F0, ∆F, VUAA1-normalized ∆F values, as well as the OR name, the name of the tested sample, and the final concentration for each well were copied into supplementary file Data summary.xlsx, that was used to summarize all the plates recorded. Here, the averages of the measurements were calculated for each receptor-VOC-concentration combination. […] Each VOC was measured at 1, 10, and 100 µM final concentration on each receptor. VUAA1-normalized response was calculated as described in methods.

[2] = target: T2, Drosophila OR85b (Drosophila melanogaster, UniProt Q9VHQ7); assay: cell-based; design: GCaMP6 calcium fluorescence in stable HEK293 OR+ORCO lines; peak dF normalised to 50 uM VUAA1 (=1); settings: relative to 50 uM VUAA1 response, below 0.05 set to 0; for activity at 1 µM / activity at 10 µM / activity at 100 µM: HEK293, read-out: % activation; for % activation: agonist
T2 construct: expressed in transfected cells
T2 sequence (Q9VHQ7 1-390): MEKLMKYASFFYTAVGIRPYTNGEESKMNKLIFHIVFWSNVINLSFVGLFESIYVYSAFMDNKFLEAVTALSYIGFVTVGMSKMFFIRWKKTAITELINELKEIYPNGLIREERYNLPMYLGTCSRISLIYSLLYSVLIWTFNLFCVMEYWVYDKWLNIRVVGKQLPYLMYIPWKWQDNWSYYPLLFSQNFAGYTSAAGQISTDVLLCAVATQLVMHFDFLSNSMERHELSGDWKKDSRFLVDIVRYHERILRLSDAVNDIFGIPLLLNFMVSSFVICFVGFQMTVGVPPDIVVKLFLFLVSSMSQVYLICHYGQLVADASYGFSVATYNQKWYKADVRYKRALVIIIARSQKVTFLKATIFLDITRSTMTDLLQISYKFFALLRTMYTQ
T2 sequence (Q9VNB5 1-486 partner): T1 sequence (Q9VNB5 1-486 partner)
Method: as §1

[3] = target: T3, Drosophila OR47a (Drosophila melanogaster, UniProt P81921); assay: cell-based; design: GCaMP6 calcium fluorescence in stable HEK293 OR+ORCO lines; peak dF normalised to 50 uM VUAA1 (=1); settings: relative to 50 uM VUAA1 response, below 0.05 set to 0; for activity at 1 µM / activity at 10 µM / activity at 100 µM: HEK293, read-out: % activation
T3 construct: expressed in transfected cells
T3 sequence (P81921 1-385): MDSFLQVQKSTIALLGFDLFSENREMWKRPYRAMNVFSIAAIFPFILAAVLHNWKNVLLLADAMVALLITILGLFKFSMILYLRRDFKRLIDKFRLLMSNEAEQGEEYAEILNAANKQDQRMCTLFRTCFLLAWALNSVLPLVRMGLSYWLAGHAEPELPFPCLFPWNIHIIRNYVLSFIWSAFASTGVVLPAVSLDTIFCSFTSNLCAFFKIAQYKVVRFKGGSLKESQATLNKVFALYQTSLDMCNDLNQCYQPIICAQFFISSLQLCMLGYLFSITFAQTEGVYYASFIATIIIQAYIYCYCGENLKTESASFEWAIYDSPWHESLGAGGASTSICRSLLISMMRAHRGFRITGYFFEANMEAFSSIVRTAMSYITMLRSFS
T3 sequence (Q9VNB5 1-486 partner): T1 sequence (Q9VNB5 1-486 partner)
Method: as §1

[4] = system: OR71a; design: method as in earlier work; settings: DoOR database value, ref DoOR, cited from earlier work

activity at 1 µM [1]: 0% | activity at 10 µM [1]: 0% | activity at 100 µM [1]: 0% | activity at 1 µM [2]: 0% | activity at 10 µM [2]: 0% | activity at 100 µM [2]: 0% | activity at 1 µM [3]: 0% | activity at 10 µM [3]: 0% | activity at 100 µM [3]: 0%
Structure (SMILES): C=C1CC[C@@]23C[C@@H]1C(C)(C)[C@@H]2CC[C@H]3C [(+)-beta-cedrene]

Structure (SMILES): C=CC(O)CCCCC (stereo not drawn) [1-octen-3-ol]
OR71a DoOR response [4]: 0.09

Structure (SMILES): CCCC(=O)OCC [ethyl butyrate]
OR71a DoOR response [4]: 0.046

Structure (SMILES): CC(=O)c1ccccc1 [acetophenone]
OR71a DoOR response [4]: 0.05

Structure (SMILES): O=Cc1ccccc1 [benzaldehyde]
OR71a DoOR response [4]: 0.025

Structure (SMILES): CCCCCOC(C)=O [pentyl acetate]
activity at 1 µM [1]: 7.95% | activity at 100 µM [1]: 6.1%

Structure (SMILES): CCCOC(C)=O [propyl acetate]
activity at 1 µM [2]: 5.38% | OR71a DoOR response ([4]; OR71a): 0.04

Structure (SMILES): CCCCCC(=O)CC [3-octanone]
OR71a DoOR response [4]: 0.016

Structure (SMILES): C=C(C)C1CCC2(C)OC2C1 (single isomer, unassigned; (+)) [(+)-limonene oxide]
activity at 1 µM [1]: 0% | activity at 10 µM [1]: 0% | activity at 100 µM [1]: 0% | activity at 1 µM [2]: 0% | activity at 10 µM [2]: 0% | activity at 100 µM [2]: 0% | activity at 1 µM [3]: 0% | activity at 10 µM [3]: 0% | activity at 100 µM [3]: 0%

Structure (SMILES): CC/C=C\CCOC(C)=O [Z-3-hexenyl acetate]
activity at 1 µM [2]: 14.5%

Structure (SMILES): C=CCc1ccc(O)c(OC)c1 [eugenol]
OR71a DoOR response [4]: 0.73

Structure (SMILES): CCCCCC(O)CC (stereo not drawn) [3-octanol]
OR71a DoOR response [4]: 0.01

Structure (SMILES): Cc1ccccc1C [o-xylene]
activity at 1 µM [2]: 8.04% | activity at 100 µM [2]: 8.27%

Structure (SMILES): C=C(C)[C@H]1CC=C(C)CC1 [(R)-(+)-limonene]
activity at 1 µM [1]: 0% | activity at 10 µM [1]: 0% | activity at 100 µM [1]: 0% | % activation ([2]; 10 µM, 10 / OR85b): 0% | % activation ([2]; 100 µM, 100 / OR85b): 0% | % activation ([2]; 1 / OR85b, 1 µM): 0% | activity at 1 µM [3]: 0% | activity at 100 µM [3]: 0% | % activation ([3]; 10 µM, agonist, 10 / OR47a): 0.05286%

Structure (SMILES): CCCCCC(C)=O [2-heptanone]
OR71a DoOR response [4]: 0.045

Structure (SMILES): Cc1ccc(C(C)C)cc1 [p-cymene]
activity at 10 µM [2]: 11.7% | activity at 100 µM [2]: 9.05% | OR71a DoOR response ([4]; OR71a): 0.063
